Tested on: A498 complex spheroids with HUVEC/MSC, growth
Test: Anticancer human tumor A498 cell line growth inhibition [AhR];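 note: seven day exposure starting three days after spheroid seeding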;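 for viability, T/C: luminescence signal used as a surrogate for viable cells; luminescence viability scaled so 100% equals DMSO vehicle wells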
Conditions: for IC50: curve of first compound; for viability, T/C: stronger effect = lower value
Method in brief: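 Spheroids combined tumor cells with HUVEC endothelial cells and human MSCs as stroma. AhR antagonists were paired with standard or investigational drugs, each dosed in half-log steps down from near clinical Cmax, or from 10 microM where Cmax was unknown.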

[1] = second compound 0.1 µM, first compound 0.0316 µM
[2] = second compound 0.1 µM, first compound 0.1 µM
[3] = second compound 0.1 µM, first compound 0.316 µM
[4] = second compound 0.1 µM, first compound 1 µM
[5] = second compound 0.1 µM, first compound 3.16 µM
[6] = second compound 0.1 µM, first compound 10 µM
[7] = second compound 0.316 µM, first compound 0.0316 µM
[8] = second compound 0.316 µM, first compound 0.1 µM
[9] = second compound 0.316 µM, first compound 0.316 µM
[10] = second compound 0.316 µM, first compound 1 µM
[11] = second compound 0.316 µM, first compound 3.16 µM
[12] = second compound 0.316 µM, first compound 10 µM
[13] = second compound 1 µM, first compound 0.0316 µM
[14] = second compound 1 µM, first compound 0.1 µM
[15] = second compound 1 µM, first compound 0.316 µM
[16] = second compound 1 µM, first compound 1 µM
[17] = second compound 1 µM, first compound 3.16 µM
[18] = second compound 1 µM, first compound 10 µM
[19] = second compound 3.16 µM, first compound 0.0316 µM
[20] = second compound 3.16 µM, first compound 0.1 µM
[21] = second compound 3.16 µM, first compound 0.316 µM
[22] = second compound 3.16 µM, first compound 1 µM
[23] = second compound 3.16 µM, first compound 3.16 µM
[24] = second compound 3.16 µM, first compound 10 µM
[25] = second compound 10 µM, first compound 0.0316 µM
[26] = second compound 10 µM, first compound 0.1 µM
[27] = second compound 10 µM, first compound 0.316 µM
[28] = second compound 10 µM, first compound 1 µM
[29] = second compound 10 µM, first compound 3.16 µM
[30] = second compound 10 µM, first compound 10 µM

In the case of `CC(C)c1c(-c2ccccc2)nc2c(C#N)c[nH]n2c1=O` + Cc1ccccc1N=Nc1ccc(NC(=O)c2ccnn2C)c(C)c1, the IC50 (second compound 0.1 µM) is reported as over 10000 nM, the IC50 (second compound 0.316 µM) is reported as over 10000 nM and the IC50 (second compound 1 µM) is reported as over 10000 nM. The IC50 (second compound 3.16 µM) was over 10000 nM, the IC50 (second compound 10 µM) was over 10000 nM and the viability, T/C [1] was 78.9%. The viability, T/C [2] was 84.9%, the viability, T/C [3] was 83.2% and the viability, T/C [4] was 81.8%. It also gave a viability, T/C [5] of 80.2%, a viability, T/C [6] of 84.2% and a viability, T/C [7] of 87.7%. For the same molecule, the viability, T/C [8] was 88.5%, the viability, T/C [9] was 89.7% and the viability, T/C [10] was 85.9%. It also gave a viability, T/C [11] of 82.8%, a viability, T/C [12] of 89.5% and a viability, T/C [13] of 80.1%. For the same molecule, the viability, T/C [14] was 74.6%, the viability, T/C [15] was 86.8% and the viability, T/C [16] was 78.1%. It also gave a viability, T/C [17] of 76.7%, a viability, T/C [18] of 77.5% and a viability, T/C [19] of 77.2%. The viability, T/C [20] was 79.2%, the viability, T/C [21] was 79.6% and the viability, T/C [22] was 76.8%. It also gave a viability, T/C [23] of 72.7%, a viability, T/C [24] of 78.1% and a viability, T/C [25] of 80.2%. For the same molecule, the viability, T/C [26] was 81.7%, the viability, T/C [27] was 74.3% and the viability, T/C [28] was 81%. It also gave a viability, T/C [29] of 71.8% and a viability, T/C [30] of 74.1%.

`CC1COCCN1c1cc(-c2ccnn2C)c2ccnc(-c3ccn[nH]3)c2n1` (stereo not given) + Cc1ccccc1N=Nc1ccc(NC(=O)c2ccnn2C)c(C)c1 showed an IC50 (second compound 0.1 µM) of 21.9 nM, an IC50 (second compound 0.316 µM) of 50.3 nM and an IC50 (second compound 1 µM) of 84.9 nM. For the same molecule, the IC50 (second compound 3.16 µM) was 97 nM, the IC50 (second compound 10 µM) was 84.7 nM and the viability, T/C (second compound 0.1 µM, first compound 0.00316 µM) was 71.7%. The viability, T/C (second compound 0.1 µM, first compound 0.01 µM) was 54.4%, the viability, T/C [1] was 49.7% and the viability, T/C [2] was 34.2%. It also gave a viability, T/C [3] of 25.1%, a viability, T/C [4] of 15.7% and a viability, T/C (second compound 0.316 µM, first compound 0.00316 µM) of 71.2%. The viability, T/C (second compound 0.316 µM, first compound 0.01 µM) was 86.6%, the viability, T/C [7] was 58.8% and the viability, T/C [8] was 33.9%. The viability, T/C [9] was 17.8%, the viability, T/C [10] was 17.8% and the viability, T/C (second compound 1 µM, first compound 0.00316 µM) was 87.5%. For the same molecule, the viability, T/C (second compound 1 µM, first compound 0.01 µM) was 94.8%, the viability, T/C [13] was 74.7% and the viability, T/C [14] was 47.4%. For the same molecule, the viability, T/C [15] was 16.4%, the viability, T/C [16] was 12.9% and the viability, T/C (second compound 3.16 µM, first compound 0.00316 µM) was 94.7%. The viability, T/C (second compound 3.16 µM, first compound 0.01 µM) was 87.7%, the viability, T/C [19] was 84.3% and the viability, T/C [20] was 47.9%. It also gave a viability, T/C [21] of 20.8%, a viability, T/C [22] of 11.1% and a viability, T/C (second compound 10 µM, first compound 0.00316 µM) of 90.1%. For the same molecule, the viability, T/C (second compound 10 µM, first compound 0.01 µM) was 87.1%, the viability, T/C [25] was 69.9% and the viability, T/C [26] was 47.6%. The viability, T/C [27] was 23.1% and the viability, T/C [28] was 13.9%.

Work on `COc1ccc([C@@H](O)c2cc(-c3ncnc4cc(N5CCOCC5)ccc34)c(F)cc2Cl)nn1` + Cc1ccccc1N=Nc1ccc(NC(=O)c2ccnn2C)c(C)c1 yielded an IC50 (second compound 0.1 µM) of 252 nM, an IC50 (second compound 0.316 µM) of 562 nM and an IC50 (second compound 1 µM) of 650 nM. The IC50 (second compound 3.16 µM) was 666 nM, the IC50 (second compound 10 µM) was 630 nM and the viability, T/C [1] was 85.8%. It also gave a viability, T/C [2] of 58%, a viability, T/C [3] of 40.8% and a viability, T/C [4] of 42.9%. The viability, T/C [5] was 18.1%, the viability, T/C [6] was 9.01% and the viability, T/C [7] was 71.1%. The viability, T/C [8] was 90.5%, the viability, T/C [9] was 54.8% and the viability, T/C [10] was 41.5%. The viability, T/C [11] was 11.4%, the viability, T/C [12] was 9.4% and the viability, T/C [13] was 85.7%. For the same molecule, the viability, T/C [14] was 84%, the viability, T/C [15] was 81.2% and the viability, T/C [16] was 31.4%. For the same molecule, the viability, T/C [17] was 10.2%, the viability, T/C [18] was 6.98% and the viability, T/C [19] was 91.9%. For the same molecule, the viability, T/C [20] was 92.9%, the viability, T/C [21] was 71.1% and the viability, T/C [22] was 38.5%. It also gave a viability, T/C [23] of 12.6%, a viability, T/C [24] of 6.52% and a viability, T/C [25] of 83.4%. The viability, T/C [26] was 83.2%, the viability, T/C [27] was 67.2% and the viability, T/C [28] was 37.5%. For the same molecule, the viability, T/C [29] was 17.5% and the viability, T/C [30] was 7.07%.

With `O=C(C=Cn1cnc(-c2cc(C(F)(F)F)cc(C(F)(F)F)c2)n1)NNc1cnccn1` + Cc1ccccc1N=Nc1ccc(NC(=O)c2ccnn2C)c(C)c1 the IC50 (second compound 0.1 µM) was 97.1 nM, the IC50 (second compound 0.316 µM) was 55.1 nM and the IC50 (second compound 1 µM) was 51.9 nM. For the same molecule, the IC50 (second compound 3.16 µM) was 43.5 nM, the IC50 (second compound 10 µM) was 61.8 nM and the viability, T/C (second compound 0.1 µM, first compound 0.00949 µM) was 88.7%. For the same molecule, the viability, T/C (second compound 0.1 µM, first compound 0.03 µM) was 77.2%, the viability, T/C (second compound 0.1 µM, first compound 0.0949 µM) was 47.9% and the viability, T/C (second compound 0.1 µM, first compound 0.3 µM) was 30.3%. The viability, T/C (second compound 0.1 µM, first compound 0.949 µM) was 19.8%, the viability, T/C (second compound 0.1 µM, first compound 3 µM) was 13.3% and the viability, T/C (second compound 0.316 µM, first compound 0.00949 µM) was 74.7%. The viability, T/C (second compound 0.316 µM, first compound 0.03 µM) was 62.4%, the viability, T/C (second compound 0.316 µM, first compound 0.0949 µM) was 39.1% and the viability, T/C (second compound 0.316 µM, first compound 0.3 µM) was 21.9%. The viability, T/C (second compound 0.316 µM, first compound 0.949 µM) was 19.1%, the viability, T/C (second compound 0.316 µM, first compound 3 µM) was 16.2% and the viability, T/C (second compound 1 µM, first compound 0.00949 µM) was 56.9%. The viability, T/C (second compound 1 µM, first compound 0.03 µM) was 75.9%, the viability, T/C (second compound 1 µM, first compound 0.0949 µM) was 31.9% and the viability, T/C (second compound 1 µM, first compound 0.3 µM) was 17.9%. The viability, T/C (second compound 1 µM, first compound 0.949 µM) was 17.6%, the viability, T/C (second compound 1 µM, first compound 3 µM) was 20.2% and the viability, T/C (second compound 3.16 µM, first compound 0.00949 µM) was 70.5%. The viability, T/C (second compound 3.16 µM, first compound 0.03 µM) was 62%, the viability, T/C (second compound 3.16 µM, first compound 0.0949 µM) was 24.6% and the viability, T/C (second compound 3.16 µM, first compound 0.3 µM) was 29.8%. It also gave a viability, T/C (second compound 3.16 µM, first compound 0.949 µM) of 21.4%, a viability, T/C (second compound 3.16 µM, first compound 3 µM) of 19.4% and a viability, T/C (second compound 10 µM, first compound 0.00949 µM) of 73.8%. For the same molecule, the viability, T/C (second compound 10 µM, first compound 0.03 µM) was 68.4%, the viability, T/C (second compound 10 µM, first compound 0.0949 µM) was 37.8% and the viability, T/C (second compound 10 µM, first compound 0.3 µM) was 29.6%. It also gave a viability, T/C (second compound 10 µM, first compound 0.949 µM) of 20.3% and a viability, T/C (second compound 10 µM, first compound 3 µM) of 18.8%.

— PubChem BioAssay AID1919007 (Molecular Pharmacology Branch, DTP, NCI, 2023)
